Measured values as given in EP2970215B1, “PYRROLIDINE DERIVATIVES, PHARMACEUTICAL COMPOSITIONS CONTAINING THEM, AND THEIR USE IN THERAPY” (AbbVie Deutschland GmbH & Co. KG, priority 2013, dated 2014).

biological target: T1, human GlyT1c transporter (Homo sapiens, UniProt P48067); test: Radioligand binding assay using recombinant CHO cell membranes expressing human GlyT1; settings: radioligand binding to human GlyT1c transporter-expressing membranes
T1 construct: expressed in transfected cells; host or cells: CHO cells (recombinant; line hGlyT1c_5_CHO is named for the uptake assay)
T1 sequence (P48067 1-706): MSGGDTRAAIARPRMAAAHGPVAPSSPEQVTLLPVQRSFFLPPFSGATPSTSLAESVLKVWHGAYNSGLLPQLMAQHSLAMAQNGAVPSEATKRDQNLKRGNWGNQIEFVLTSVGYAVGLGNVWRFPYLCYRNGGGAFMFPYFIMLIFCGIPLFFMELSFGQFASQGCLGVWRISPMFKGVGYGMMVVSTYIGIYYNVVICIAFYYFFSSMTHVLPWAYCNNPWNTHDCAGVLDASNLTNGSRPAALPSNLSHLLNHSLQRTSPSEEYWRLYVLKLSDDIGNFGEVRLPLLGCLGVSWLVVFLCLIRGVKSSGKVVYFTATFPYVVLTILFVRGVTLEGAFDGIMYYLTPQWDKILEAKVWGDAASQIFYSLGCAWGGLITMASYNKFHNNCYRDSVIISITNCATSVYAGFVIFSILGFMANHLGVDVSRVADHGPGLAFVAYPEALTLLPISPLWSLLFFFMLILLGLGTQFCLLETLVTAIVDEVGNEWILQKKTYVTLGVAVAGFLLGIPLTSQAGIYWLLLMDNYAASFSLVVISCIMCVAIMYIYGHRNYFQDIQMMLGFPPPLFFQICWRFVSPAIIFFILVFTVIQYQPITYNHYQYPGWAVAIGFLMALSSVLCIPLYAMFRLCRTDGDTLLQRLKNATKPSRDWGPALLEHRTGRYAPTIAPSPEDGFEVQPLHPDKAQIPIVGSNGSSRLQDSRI
Excerpt: 2. Radioligand binding assays using recombinant CHO cell membranes expressing human GlyT1: […]

SMILES	Ki
Cn1cnc(S(=O)(=O)N2C[C@@H](CNc3ccc(Cl)c(OC(F)(F)F)c3)[C@H](c3ccc(F)cc3)C2)c1 (relative stereo) [Example 377, 4-chloro-N-({trans-4-(4-fluorophenyl)-1-[(1-methyl-1H-imidazol-4-yl)sulfonyl]pyrrolidin-3-yl}methyl)-3-(trifluoromethoxy)aniline]	≤ 1 µM
Cn1cnc(S(=O)(=O)N2C[C@@H](N3Cc4ccc(Cl)cc4C3=O)[C@H](c3ccccn3)C2)c1 (relative stereo) [Example 381, 6-chloro-2-[Trans-1-[(1-methyl-1H-imidazol-4-yl)sulfonyl]-4-(pyridin-2-yl)pyrrolidin-3-yl]-2,3-dihydro-1H-isoindol-1-one]	≤ 10 µM
Cn1cnc(S(=O)(=O)N2C[C@@H](S(=O)(=O)c3ccccc3)[C@H](c3ccccc3)C2)c1 (relative stereo) [Example 385, 1-methyl-4-{[trans-3-phenyl-4-(phenylsulfonyl)pyrrolidin-1-yl]sulfonyl}-1H-imidazole]	≤ 10 µM
Cn1cnc(S(=O)(=O)N2C[C@@H](Nc3cccc(Cl)c3)[C@H](OCc3ccccc3)C2)c1 (relative stereo) [Example 400, Trans-4-(benzyloxy)-N-(3-chlorophenyl)-1-[(1-methyl-1H-imidazol-4-yl)sulfonyl]pyrrolidin-3-amine]	≤ 10 µM
C=C(C)CO[C@@H]1CN(S(=O)(=O)c2cn(C)cn2)C[C@H]1Nc1cccc(Cl)c1 (relative stereo) [Example 403, Trans-N-(3-chlorophenyl)-1-[(1-methyl-1H-imidazol-4-yl)sulfonyl]-4-[(2-methylprop-2-en-1-yl)oxy]pyrrolidin-3-amine]	≤ 0.1 µM
CC(C)CO[C@@H]1CN(S(=O)(=O)c2cn(C)cn2)C[C@H]1Nc1cccc(Cl)c1 (relative stereo) [Example 412, Trans-N-(3-chlorophenyl)-1-[(1-methyl-1H-imidazol-4-yl)sulfonyl]-4-(2-methylpropoxy)pyrrolidin-3-amine]	≤ 1 µM

Second part, the compound after the results:

Ki	SMILES
≤ 10 µM	Cn1cnc(S(=O)(=O)N2C[C@@H](Nc3cccc(Cl)c3)[C@H](Oc3ccc(F)cc3)C2)c1 (relative stereo) [Example 378, Trans-N-(3-chlorophenyl)-4-(4-fluorophenoxy)-1-[(1-methyl-1H-imidazol-4-yl)sulfonyl]pyrrolidin-3-amine]
≤ 0.1 µM	Cn1cnc(S(=O)(=O)N2C[C@@H](Oc3cc(C(F)(F)F)ccn3)[C@H](c3ccc(F)cc3)C2)c1 (relative stereo) [Example 379, 2-({trans-4-(4-fluorophenyl)-1-[(1-methyl-1H-imidazol-4-yl)sulfonyl]pyrrolidin-3-yl}oxy)-4-(trifluoromethyl)pyridine]
≤ 1 µM	Cn1cnc(S(=O)(=O)N2C[C@@H](Nc3cc(C(F)(F)F)cnn3)[C@H](c3ccc(F)cc3)C2)c1 (relative stereo) [Example 383, N-{trans-4-(4-fluorophenyl)-1-[(1-methyl-1H-imidazol-4-yl)sulfonyl]pyrrolidin-3-yl} -5 - (trifluoromethyl)pyridazin-3-amine]
≤ 10 µM	C=CCO[C@@H]1CN(S(=O)(=O)c2cn(C)cn2)C[C@H]1Nc1cccc(Cl)c1 (relative stereo) [Example 402, Trans-N-(3-chlorophenyl)-1-[(1-methyl-1H-imidazol-4-yl)sulfonyl]-4-(prop-2-en-1-yloxy)pyrrolidin-3-amine]
≤ 10 µM	Cn1cnc(S(=O)(=O)N2C[C@@H](N3Cc4cc(C(F)(F)F)ccc4NC3=O)[C@H](c3ccccc3)C2)c1 (relative stereo) [Example 404, 3-{Trans-1-[(1-methyl-1H-imidazol-4-yl)sulfonyl]-4-phenylpyrrolidin-3-yl}-6-(trifluoromethyl)-3,4-dihydroquinazolin-2(1H)-one]
≤ 0.01 µM	Cn1cnc(S(=O)(=O)N2C[C@@H](Nc3cccc(OC(F)(F)F)c3)[C@H](C3CCCCC3)C2)c1 (relative stereo) [Example 425, Trans-4-cyclohexyl-1-[(1-methyl-1H-imidazol-4-yl)sulfonyl]-N-[3-(trifluoromethoxy)phenyl]pyrrolidin-3-amine]
